These results are taken from patent US9809598B2 (Merck Patent GmbH, priority 2014, dated 2017).

≈ marks a conversion by molar mass, not a printed value.

In series [1] the target is T1, PARP-1 (Homo sapiens, UniProt P09874).
T1 construct: purchased Enzo Life Sciences GmbH, Lörrach, Germany
Briefly: PARP-1 autoparsylation assay (HTRF). Type of series: biochemical. Particulars: His-tagged Parp-1, autoparsylation HTRF. The procedure, abridged:
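His-tagged enzyme auto-modifies itself using biotinylated NAD/NAD; product detected by TR-FRET between cryptate anti-His antibody and Xlent-streptavidin, as emission ratio.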
(In TR-FRET formats the signal depends on donor and acceptor labels being close together.)

The target in series [2] is T2, TNKS1 (Homo sapiens, UniProt O95271).
T2 construct: GST-tagged Tnks-1 (1023-1327 aa, prepared in-house); made in house
T2 sequence (O95271 1023-1327): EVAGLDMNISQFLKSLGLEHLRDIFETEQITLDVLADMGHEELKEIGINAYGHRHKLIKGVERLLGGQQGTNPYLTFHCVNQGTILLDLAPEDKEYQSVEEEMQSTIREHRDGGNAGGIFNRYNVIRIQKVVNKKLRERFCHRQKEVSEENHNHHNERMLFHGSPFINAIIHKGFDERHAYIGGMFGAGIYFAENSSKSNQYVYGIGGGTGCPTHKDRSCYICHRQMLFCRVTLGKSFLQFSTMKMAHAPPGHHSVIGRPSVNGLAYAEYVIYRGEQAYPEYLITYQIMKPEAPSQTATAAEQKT
Briefly: TNKS1 activity ELISA (autoparsylation assay). Type of series: biochemical. Particulars: GST-tagged Tnks-1 (1023-1327 aa). The essentials:
(§1)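 GST-tagged TNKS1 or TNKS2 captured on glutathione plates and allowed to auto-PARsylate with biotinylated NAD with or without compound. Biotin-ADP-ribosylated enzyme detected by streptavidin-HRP and luminescence; IC50 relative to inhibitor-free reaction.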

Series [3] concerns the target T3, TNKS2 (Homo sapiens, UniProt Q9H2K2).
T3 construct: GST-tagged Tnks-2 (873-1166 aa, prepared in-house); made in house
Briefly: TNKS2 activity ELISA (autoparsylation assay). The format is biochemical. The settings on record: GST-tagged Tnks-2 (873-1166 aa); read-out: IC50 [M] TNKS2 ELISA. The procedure, abridged: as §1
On the technique in general: In an ELISA, binding on a coated surface is turned into a signal by an enzyme label.

Series [4] is described as follows: Solubility pH 7.4. The settings on record: pH 7.4, aqueous buffer. Type of series: physicochemical.
Series [5] can be described thus: Microsomal stability (intrinsic clearance), mouse liver microsomes. The format is in vitro ADME. The settings on record: pH 7.4. From the text:
(§2) Test Method Microsomal Stability (Intrinsic Clearance)
(§3) A microsomal stability assay is used to measure in vitro clearance (Clint). The assay involves measuring the rate of disappearance of a compound due to its intrinsic attitude to be metabolized (“intrinsic” meaning that the disappearance is not affected by other properties like permeability, binding etc. that play a role when quantifying in vivo clearance). The microsomal stability (intrinsic clearance, Clint) and thus metabolic stability is generally given as μl/min/mg protein. It can be visualized as the volume of solution that 1 mg of microsomes is able to clear of the compound in one minute.
(§4) A Tecan Genesis workstation (RSP 150/8) was used for to perform the microsomal incubations. Analysis was carried out using a Waters ACQUITY UPLC system coupled to an ABSciex API3000 mass spectrometer. Data analysis was performed using Assay Explorer (Symyx).
(§5) Chemicals • Potassium phosphate buffer: 0.05 M potassium phosphate buffer pH 7.4 containing 1 mM MgCl2 • NADPH (nicotinamide adenine dinucleotide phosphate): 22.5 mg NADPH-Na4 in 1.8 ml potassium phosphate buffer • Acetonitrile: 50 Vol % acetonitrile (1 volume acetonitrile, 1 volume water) • DMSO: 20 Vol % DMSO in water • Stock solution of 20 mg/ml human or mouse liver microsomes (protein)/ml in phosphate buffer
(§6) Stock solution of 10 mM compound in 100% DMSO
In general terms: Liver microsomes are a subcellular fraction often used to study metabolism.

Series [6] in a line: Microsomal stability (intrinsic clearance), human liver microsomes. The format is in vitro ADME. Particulars: pH 7.4.
From the text: as §2, §3, §4, §5, §6

Series [7] concerns Tankyrases. Particulars: read-out: EC50 [M] TNKS cellular assay; DLD1 cells, 24 hours, Axin2 increase.

T3 sequence (Q9H2K2 873-1166): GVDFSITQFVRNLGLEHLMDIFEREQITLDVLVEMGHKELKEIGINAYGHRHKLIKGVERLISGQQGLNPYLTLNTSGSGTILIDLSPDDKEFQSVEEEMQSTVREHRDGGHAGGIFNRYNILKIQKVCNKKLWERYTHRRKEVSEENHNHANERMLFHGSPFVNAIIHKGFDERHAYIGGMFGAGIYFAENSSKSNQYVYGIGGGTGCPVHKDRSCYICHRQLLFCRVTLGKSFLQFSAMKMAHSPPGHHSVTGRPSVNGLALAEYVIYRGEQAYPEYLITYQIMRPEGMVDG
T1 sequence (P09874 whole entry): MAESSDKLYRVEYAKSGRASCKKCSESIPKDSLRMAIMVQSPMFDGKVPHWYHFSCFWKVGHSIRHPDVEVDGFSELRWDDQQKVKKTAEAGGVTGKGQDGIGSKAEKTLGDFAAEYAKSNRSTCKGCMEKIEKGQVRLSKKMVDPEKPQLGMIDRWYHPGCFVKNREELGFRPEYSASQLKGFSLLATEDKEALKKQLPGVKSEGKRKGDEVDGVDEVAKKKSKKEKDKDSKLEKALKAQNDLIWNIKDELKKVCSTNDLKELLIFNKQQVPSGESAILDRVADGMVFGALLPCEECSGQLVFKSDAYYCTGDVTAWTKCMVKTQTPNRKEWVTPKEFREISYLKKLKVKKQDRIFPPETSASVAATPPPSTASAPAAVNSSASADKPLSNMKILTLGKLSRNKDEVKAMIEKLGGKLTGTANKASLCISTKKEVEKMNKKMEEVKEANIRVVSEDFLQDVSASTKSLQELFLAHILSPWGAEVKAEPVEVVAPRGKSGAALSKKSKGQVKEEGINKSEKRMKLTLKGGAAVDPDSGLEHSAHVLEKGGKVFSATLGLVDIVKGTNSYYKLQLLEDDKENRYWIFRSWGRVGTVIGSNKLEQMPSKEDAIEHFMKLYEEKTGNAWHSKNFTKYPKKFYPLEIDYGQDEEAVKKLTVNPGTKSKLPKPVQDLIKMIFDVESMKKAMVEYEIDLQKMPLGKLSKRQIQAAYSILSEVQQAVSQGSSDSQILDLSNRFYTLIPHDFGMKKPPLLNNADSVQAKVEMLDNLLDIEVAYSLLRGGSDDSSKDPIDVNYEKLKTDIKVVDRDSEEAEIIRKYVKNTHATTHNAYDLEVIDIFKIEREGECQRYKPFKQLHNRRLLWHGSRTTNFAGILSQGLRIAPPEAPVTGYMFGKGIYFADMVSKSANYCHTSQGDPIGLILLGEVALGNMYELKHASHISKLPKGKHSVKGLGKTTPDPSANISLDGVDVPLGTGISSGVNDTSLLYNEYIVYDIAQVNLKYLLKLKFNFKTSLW

In general, IC50 refers to the concentration at which inhibition is half-maximal. The term solubility denotes the concentration that dissolves in the medium under given conditions. In general, microsomal CLint refers to a measure of how fast metabolising enzymes remove a compound, apart from limits set by blood flow. A low value points to slow turnover. A word on the EC50: it is the concentration that produces a half-maximal response. With `Cn1cc(C(=O)C2CCN(C(=O)CCCc3cn4c(F)ccc4c(=O)[nH]3)CC2)cn1` [Compound C208, 6-Fluoro-3-{4-[4-(1-methyl-1H-pyrazole-4-carbonyl)-piperidin-1-yl]-4-oxo-butyl}-2H-pyrrolo[1,2-a]pyrazin-1-one], the values for the IC50 in series [1], in series [2] and in series [3] were 6000 nM, 0.25 nM and 2.3e-10 M, respectively. Further, the concentration in solution in series [4] (solubility) was 101 µg/mL (≈ 244 µM). Further, the microsomal CLint in series [5] is 26 µL/min/mg; in series [6], under 10 µL/min/mg. Besides, the EC50 in series [7] is 5.2e-09 M.

Turning to `COc1ccc(C(=O)C2CCN(C(=O)CCCc3nc4c(cnn4C)c(=O)[nH]3)CC2)cc1` [Compound C41, 6-{4-[4-(4-Methoxy-benzoyl)-piperidin-1-yl]-4-oxo-butyl}-1-methyl-1,5-dihydro-pyrazolo[3,4-d]pyrimidin-4-one], the values for the IC50 in series [1], in series [2] and in series [3] were 6300 nM, 0.18 nM and 1.3e-10 M, respectively. This molecule registered a solubility in series [4] of 55 µg/mL (≈ 126 µM). Further, the microsomal CLint worked out at 36 µL/min/mg in series [5] and 25 µL/min/mg in series [6]. Besides, the EC50 in series [7] was 1.8e-09 M.

With `COc1ccc(C(=O)C2CCN(C(=O)CCCc3nc4c(F)cc(F)cc4c(=O)[nH]3)CC2)cc1` [Compound A5, 6,8-difluoro-2-{4-[4-(4-methoxy-benzoyl)-piperidin-1-yl]-4-oxo-butyl}-3H-quinazolin-4-one, reference compound], the concentration in solution in series [4] (solubility) came to 5 µg/mL (≈ 10.6 µM). In addition, the figures for the microsomal CLint in series [5] and in series [6] were 86 µL/min/mg and 58 µL/min/mg, respectively. Further, the EC50 in series [7] was found to be 2.6e-09 M.

`Cn1ncc2c(=O)[nH]c(CCCC(=O)N3CCC(C(=O)c4ccc(F)cc4)CC3)nc21` [Compound C48, 6-{4-[4-(4-Fluoro-benzoyl)-piperidin-1-yl]-4-oxo-butyl}-1-methyl-1,5-dihydro-pyrazolo[3,4-d]pyrimidin-4-one]: the values for the IC50 in series [1], in series [2] and in series [3] were 7300 nM, 0.45 nM and 3.1e-10 M, respectively. In series [4], the concentration in solution (solubility) was 206 µg/mL (≈ 484 µM). Besides, the results for the microsomal CLint in series [5] and in series [6] were 59 µL/min/mg and 20 µL/min/mg, respectively. The EC50 in series [7] was determined as 4.4e-09 M.

With `COc1ccc(C(=O)C2CCN(C(=O)CCCc3nc4ccccc4c(=O)[nH]3)CC2)cc1` [Compound A1, 2-{4-[4-(4-methoxy-benzoyl)-piperidin-1-yl]-4-oxo-butyl}-3H-quinazolin-4-one, reference compound], the solubility in series [4] came to 18 µg/mL (≈ 41.5 µM). The microsomal CLint in series [5] came to 120 µL/min/mg; in series [6], 104 µL/min/mg. Also, the concentration for a half-maximal effect (EC50) in series [7] is 2e-09 M.

As to `CCn1cc(C(=O)C2CCN(C(=O)CCCc3nn4cccc4c(=O)[nH]3)CC2)cn1` [Compound C214, 2-{4-[4-(1-Ethyl-1H-pyrazole-4-carbonyl)-piperidin-1-yl]-4-oxo-butyl}-3H-pyrrolo[2,1-f][1,2,4]triazin-4-one], the IC50 in series [1] worked out at 8500 nM; in series [2], 2.2 nM; in series [3], 1.3e-09 M. This molecule yielded a solubility in series [4] of 394 µg/mL (≈ 960 µM). Further, the microsomal CLint in series [5] worked out at 41 µL/min/mg; in series [6] it was 21 µL/min/mg. Also, the EC50 in series [7] was 1.5e-08 M.

As to `Cc1ccc(C(=O)C2CCN(C(=O)CCCc3nc4c(cnn4C)c(=O)[nH]3)CC2)cc1` [Compound C234, 1-Methyl-6-{4-[4-(4-methyl-benzoyl)-piperidin-1-yl]-4-oxo-butyl}-1,5-dihydro-pyrazolo[3,4-d]pyrimidin-4-one], the results for the IC50 in series [1], in series [2] and in series [3] were 18000 nM, 0.66 nM and 3e-10 M, respectively. Moreover, the EC50 in series [7] was determined as 1.6e-08 M.

As to `Cc1csc2c(=O)[nH]c(CCCC(=O)N3CCC(Oc4ccc(C#N)cc4)CC3)nc12` [Compound C130, 4-{{1-[4-(7-Methyl-4-oxo-3H-thieno[3,2-d]pyrimidin-2-yl)butanoyl]-4-piperidyl}-oxy}benzonitrile], the IC50 was determined as 320 nM in series [1], 50 nM in series [2] and 2.1e-08 M in series [3]. Further, the EC50 in series [7] is 3.3e-08 M.

As for `Cc1cc2c(=O)[nH]c(CCCC(=O)N3CCC(c4cnc(N)c(C#N)c4)CC3)nn2c1` [Compound C160, 6-Amino-1′-[4-(6-methyl-4-oxo-3,4-dihydro-pyrrolo[2,1-f][1,2,4]triazin-2-yl)-butyryl]-1′,2′,3′,4′,5′,6′-hexahydro-[3,4′]bipyridinyl-5-carbonitrile], the IC50 in series [1] turned out to be 3300 nM; in series [2], 1.8 nM; in series [3], 1e-08 M. In addition, the concentration giving a half-maximal response (EC50) in series [7] turned out to be 4.9e-08 M.

Regarding `COc1ccc(C(=O)C2CCN(C(=O)CCCc3nc4c(c(=O)[nH]3)COCC4)CC2)cc1F` [Compound C192, 2-{4-[4-(3-Fluoro-4-methoxy-benzoyl)-piperidin-1-yl]-4-oxo-butyl}-3,5,7,8-tetrahydro-pyrano[4,3-d]pyrimidin-4-one], the IC50 in series [1] stood at 12000 nM; in series [2] it was 5.6 nM; in series [3], 2.1e-09 M. The EC50 in series [7] is 4.9e-08 M.

With `Cn1ncc2c(=O)[nH]c(CCCC(=O)N3CCC(c4cnc(N)c(C#N)c4)CC3)nc21` [Compound C44, 6-Amino-1′-[4-(1-methyl-4-oxo-4,5-dihydro-1H-pyrazolo[3,4-d]pyrimidin-6-yl)-butyryl]-1′,2′,3′,4′,5′,6′-hexahydro-[3,4′]bipyridinyl-5-carbonitrile], the IC50 was 18000 nM in series [1], 1.6 nM in series [2] and 9.7e-10 M in series [3]. The EC50 in series [7] was 4e-07 M.

In the case of `CC(C)n1cc(C(=O)C2CCN(C(=O)CCCc3nn4cccc4c(=O)[nH]3)CC2)cn1` [Compound C219, 2-{4-[4-(1-Isopropyl-1H-pyrazole-4-carbonyl)-piperidin-1-yl]-4-oxo-butyl}-3H-pyrrolo[2,1-f][1,2,4]triazin-4-one], the IC50 in series [1] came to 25000 nM; in series [2] it was 2 nM; in series [3], 1.2e-09 M. Further, the EC50 in series [7] is 2.4e-08 M.

Regarding `Cc1cc2c(=O)[nH]c(CCCC(=O)N3CCC(C(=O)c4ccc(F)cc4)CC3)nn2c1` [Compound C164, 2-{4-[4-(4-Fluoro-benzoyl)-piperidin-1-yl]-4-oxo-butyl}-6-methyl-3H-pyrrolo[2,1-f][1,2,4]triazin-4-one], the IC50 in series [1] stood at 2200 nM; in series [2], 0.79 nM; in series [3], 2.8e-09 M. The EC50 in series [7] stood at 2.5e-08 M.

For `Cn1ncc2c(=O)[nH]c(CCCC(=O)N3CCC(C(=O)c4ccc(Cl)cc4)CC3)nc21` [Compound C236, 6-{4-[4-(4-Chloro-benzoyl)-piperidin-1-yl]-4-oxo-butyl}-1-methyl-1,5-dihydro-pyrazolo[3,4-d]pyrimidin-4-one], the IC50 in series [1] came out at 10000 nM; in series [2], 0.48 nM; in series [3], 2.4e-10 M. Also, the concentration for a half-maximal effect (EC50) in series [7] came out at 2.1e-08 M.

Turning to `Nc1ncc(C2CCN(C(=O)CCCc3nc4c(c(=O)[nH]3)COCC4)CC2)cc1-c1ncccn1` [Compound C195, 2-[4-(6-Amino-5-pyrimidin-2-yl-3′,4′,5′,6′-tetrahydro-2′H-[3,4′]bipyridinyl-1′-yl)-4-oxo-butyl]-3,5,7,8-tetrahydro-pyrano[4,3-d]pyrimidin-4-one], the IC50 in series [1] turned out to be 3300 nM; in series [2], 2.1 nM; in series [3] it was 6.8e-10 M. The EC50 in series [7] was found to be 3.5e-08 M.

Regarding `Cc1cc2c(=O)[nH]c(CCCC(=O)N3CCC(C(=O)c4cnn(C(C)C)c4)CC3)nn2c1` [Compound C220, 2-{4-[4-(1-Isopropyl-1H-pyrazole-4-carbonyl)-piperidin-1-yl]-4-oxo-butyl}-6-methyl-3H-pyrrolo[2,1-f][1,2,4]triazin-4-one], the results for the IC50 in series [1], in series [2] and in series [3] were 6200 nM, 4.2 nM and 3.7e-09 M, respectively. Moreover, the EC50 in series [7] stood at 4e-08 M.

As to `COc1ccc(C(=O)C2CCN(C(=O)CCCc3nc4c(ccn4C)c(=O)[nH]3)CC2)cc1` [Compound C40, 2-{4-[4-(4-Methoxy-benzoyl)-piperidin-1-yl]-4-oxo-butyl}-7-methyl-3,7-dihydro-pyrrolo[2,3-d]pyrimidin-4-one], the IC50 in series [1] was 1600 nM; in series [2] it was 0.17 nM; in series [3], under 1e-10 M. Further, the EC50 in series [7] is 3.2e-09 M.

`COc1ccc(C(=O)C2CCN(C(=O)CCCc3nc4c(C)csc4c(=O)[nH]3)CC2)cc1` [Compound C35, 2-{4-[4-(4-Methoxy-benzoyl)-piperidin-1-yl]-4-oxo-butyl}-7-methyl-3H-thieno-[3,2-d]pyrimidin-4-one]: the IC50 in series [1] worked out at 130 nM; in series [2], 0.19 nM; in series [3], 1.1e-10 M. Further, the half-maximal effective concentration (EC50) in series [7] was determined as 4.2e-10 M.
